pIC50: −log10 of the molar value.
molecular target: Human MGAT-2 (Homo sapiens (Human), UniProt Q3SYC2); experiment: MGAT LCMS Assay; type: biochemical; conditions: recombinant MGAT-2 membranes expressed in Sf9 cells; 100 μM 2-oleoylglycerol, 15 μM oleoyl-Coenzyme A; LC/MS of diolein; read-out: h-MGAT LCMS IC50
Method: Assay plates were run through a fully automated robotics system and shaken for 5 seconds every minute for a total 10 minutes. The reactions were then quenched with 120 μL of ice cold methanol containing 1 μg/mL 1,2-distearoyl-rac-glycerol as the internal standard. Plates were shaken for 2 minutes and spun down to remove protein precipitation. After the spin, samples were transferred to LC/MS compatible PCR plates. For LC/MS analysis, a ThermoFisher Surveyor pump, utilizing a Waters Symmetry C8, 50×2.1 mm column, was used for the chromatography of enzyme products. The buffer system consists of 0.1% formic acid in water with a mobile phase consisting 0.1% formic acid in methanol. The shallow gradient is 90-100% mobile phase in 0.2 min with a total run time of 2.3 min. The first 0.5 minutes of each injection was diverted to waste to eliminate the presence of Phosphate buffer in the enzymatic reaction. The column was run at 0.6 mL/min and a temperature of 65° C. Mass spectrometry analysis of the samples was performed on a ThermoFisher Quantum Triple quad utilizing APCI (+) as the mode of ionization. […] The ratio of Diolein to internal standard (Peak Area Ratio) is utilized to calculate IC50 values.

Sequence of Human MGAT-2 (Q3SYC2 whole entry): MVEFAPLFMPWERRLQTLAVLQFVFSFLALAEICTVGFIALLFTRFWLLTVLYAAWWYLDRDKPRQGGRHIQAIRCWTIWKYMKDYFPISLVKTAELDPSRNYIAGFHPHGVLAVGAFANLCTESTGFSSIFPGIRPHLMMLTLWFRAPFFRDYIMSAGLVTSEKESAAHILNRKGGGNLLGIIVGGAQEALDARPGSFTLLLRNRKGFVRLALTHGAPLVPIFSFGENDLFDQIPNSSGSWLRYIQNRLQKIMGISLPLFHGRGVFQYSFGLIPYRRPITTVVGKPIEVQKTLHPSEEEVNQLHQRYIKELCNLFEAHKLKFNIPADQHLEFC

Row | pIC50 | Structure (SMILES)
1 | 7.89 | O=C1N[C@@](c2cnn(CCCCCC(F)(F)F)c2)(C(F)(F)F)CC(c2ccc3c(c2)CCCC3)=C1C(=O)NS(=O)(=O)C1CC1 [Example 58]
2 | 7.33 | CCn1ccc(C2=C(C(=O)NS(=O)(=O)C3CC3)C(=O)N[C@@](c3ccc(OCCCC(F)(F)F)cc3F)(C(F)(F)F)C2)n1 [Example 48]
3 | 7.38 | CCOc1ccc(C2=C(C(=O)NS(C)(=O)=O)C(=O)N[C@@](c3ccc(OCCCC(F)(F)F)cc3F)(C(F)(F)F)C2)cc1 [Example 97]
4 | 8.15 | CCOc1ccc(C2=C(C(=O)NS(=O)(=O)C3CC3)C(=O)N[C@@](c3ccc(OCCCC(F)(F)F)cc3F)(C(F)(F)F)C2)cc1 [Example 96]
5 | 7.28 | COc1ccc(C2=C(C(=O)NS(=O)(=O)C3CC3)C(=O)N[C@@](c3ccc(OCCCCCC(F)(F)F)cc3)(C(F)(F)F)C2)cn1 [Example 18]
6 | 7.28 | COc1ccc(C2=C(C(=O)NS(C)(=O)=O)C(=O)N[C@@](c3ccc(OCCCCCC(F)(F)F)cc3F)(C(F)(F)F)C2)cc1 [Example 36]
7 | 8.10 | CS(=O)(=O)NC(=O)C1=C(c2ccn(CC3CCC3)n2)C[C@](c2ccc(OCCCC(F)(F)F)cc2)(C(F)(F)F)NC1=O [Example 90]
8 | 7.08 | Cc1ccc(C2=C(C(=O)NS(=O)(=O)c3ccccc3)C(=O)N[C@@](c3ccc(OCCCC(F)(F)F)cc3)(C(F)(F)F)C2)cc1 [Example 29]
9 | 7.17 | O=C1N[C@@](c2ccc(OCCCC(F)(F)F)cc2)(C(F)(F)F)CC(c2ccn(CC3CC3)n2)=C1C(=O)NS(=O)(=O)C1CC1 [Example 88]
10 | 7.64 | CN(C)S(=O)(=O)NC(=O)C1=C(c2ccc(OC(F)F)cc2)C[C@](c2ccc(OCCCCCC(F)(F)F)cc2)(C(F)(F)F)NC1=O [Example 39]
11 | 7.57 | CC(C)(C)c1ccc(C2=C(C(=O)NS(C)(=O)=O)C(=O)N[C@](C)(c3ccc(OCCCC(F)(F)F)cc3)C2)cc1 [Example 85]
12 | 7.77 | CCS(=O)(=O)NC(=O)C1=C(c2ccc(C)cc2)C[C@](c2ccc(OCCCCCC(F)(F)F)cc2)(C(F)(F)F)NC1=O [Example 1, (S)—N-(Ethylsulfonyl)-2-oxo-4-(p-tolyl)-6-(4-((6,6,6-trifluorohexyl)oxy)phenyl)-6-(trifluoromethyl)-1,2,5,6-tetrahydropyridine-3-carboxamide]
13 | 8.40 | O=C1N[C@@](c2cnn(CCCCCC(F)(F)F)c2)(C(F)(F)F)CC(c2ccc(C3CC3)s2)=C1C(=O)NS(=O)(=O)C1CC1 [Example 59]
14 | 7.92 | CCc1ccc(C2=C(C(=O)NS(C)(=O)=O)C(=O)N[C@@](c3ccc(OCCCC(F)(F)F)cc3)(C(F)(F)F)C2)s1 [Example 7]
15 | 8.30 | Cc1ccc(C2=C(C(=O)NS(=O)(=O)C(F)(F)F)C(=O)N[C@@](c3ccc(OCCCC(F)(F)F)cc3)(C(F)(F)F)C2)cc1 [Example 30]
16 | 9.00 | CS(=O)(=O)NC(=O)C1=C(c2ccc(C(F)F)cc2)C[C@](c2ccc(OCCCCCC(F)(F)F)cc2F)(C(F)(F)F)NC1=O [Example 67]
17 | 7.01 | O=C1N[C@@](c2ccc(OCCCC(F)(F)F)cc2)(C(F)(F)F)CC(c2ccn(C3CC3)n2)=C1C(=O)NS(=O)(=O)C1CC1 [Example 87]
18 | 8.52 | COc1ccc(C2=C(C(=O)NS(=O)(=O)C3CC3)C(=O)N[C@@](c3ccc(OCCCCCC(F)(F)F)cc3F)(C(F)(F)F)C2)cc1 [Example 22]
19 | 6.94 | Cc1ccc(C2=C(C(=O)NS(C)(=O)=O)C(=O)N[C@](C)(CCC(C)C)C2)cc1 [Example 24]
20 | 7.23 | CC(C)Cn1ccc(C2=C(C(=O)NS(=O)(=O)C3CC3)C(=O)N[C@@](c3ccc(CCCCC(F)(F)F)cc3F)(C(F)(F)F)C2)n1 [Example 54]
21 | 8.30 | O=C1N[C@@](c2ccc(OCCCC(F)(F)F)cc2)(C(F)(F)F)CC(c2ccc(C3CC3)s2)=C1C(=O)NS(=O)(=O)C1CC1 [Example 63]
22 | 7.66 | CS(=O)(=O)NC(=O)C1=C(c2ccc3c(c2)CCC3)C[C@](c2ccc(OCCCC(F)(F)F)cc2F)(C(F)(F)F)NC1=O [Example 66]
23 | 8.40 | CC(C)n1ccc(C2=C(C(=O)NS(=O)(=O)C3CC3)C(=O)N[C@@](c3ccc(OCCCCCC(F)(F)F)cc3)(C(F)(F)F)C2)c1 [Example 72]
24 | 8.00 | O=C1N[C@@](c2ccc(CCCCC(F)(F)F)cc2F)(C(F)(F)F)CC(c2ccn(CC3CC3)n2)=C1C(=O)NS(=O)(=O)C1CC1 [Example 52]
25 | 8.70 | O=C1N[C@@](c2ccc(CCCCC(F)(F)F)cc2)(C(F)(F)F)CC(c2ccn(CC3CC3)n2)=C1C(=O)NS(=O)(=O)C1CC1 [Example 73]

Row | pIC50 | Structure (SMILES)
26 | 7.27 | CS(=O)(=O)NC(=O)C1=C(c2ccc(OC(F)F)cc2)C[C@](c2ccc(OCCCC(F)(F)F)cc2)(C(F)(F)F)NC1=O [Example 14]
27 | 7.92 | CS(=O)(=O)NC(=O)C1=C(c2ccc(C(F)F)cc2)C[C@](c2ccc(OCCCC(F)(F)F)cc2F)(C(F)(F)F)NC1=O [Example 71]
28 | 8.40 | [2H]C1([2H])C(c2ccc(OC)cc2)=C(C(=O)NS(=O)(=O)C2CC2)C(=O)N[C@@]1(c1ccc(OCCCCCC(F)(F)F)cc1F)C(F)(F)F [Example 99]
29 | 8.22 | CS(=O)(=O)NC(=O)C1=C(c2ccc(C3CC3)s2)C[C@](c2ccc(OCCCC(F)(F)F)cc2)(C(F)(F)F)NC1=O [Example 64]
30 | 7.37 | COc1ccc(C2=C(C(=O)NS(=O)(=O)C3CC3)C(=O)N[C@@](c3ccc(OCCCCCC(F)(F)F)cc3)(C(F)(F)F)C2)cc1 [Example 38]
31 | 7.09 | O=C1N[C@@](c2ccc(OCCCC(F)(F)F)cc2F)(C(F)(F)F)CC(c2ccn(C3CC3)n2)=C1C(=O)NS(=O)(=O)C1CC1 [Example 46]
32 | 7.62 | CN(C)c1ccc(C2=C(C(=O)NS(C)(=O)=O)C(=O)N[C@@](c3ccc(OCCCC(F)(F)F)cc3)(C(F)(F)F)C2)cc1 [Example 25]
33 | 7.62 | CCCCCCC#C[C@]1(C(F)(F)F)CC(c2ccc(OC(F)F)cc2)=C(C(=O)NS(C)(=O)=O)C(=O)N1 [Example 12]
34 | 7.77 | CN(C)c1ccc(C2=C(C(=O)NS(=O)(=O)C3CC3)C(=O)N[C@@](c3ccc(OCCCCCC(F)(F)F)cc3)(C(F)(F)F)C2)cc1 [Example 4]
35 | 6.75 | Cc1ccc(C2=C(C(=O)NS(=O)(=O)C3CC3)C(=O)N[C@@](c3cnn(CCCCCC(F)(F)F)c3)(C(F)(F)F)C2)cc1 [Example 93]
36 | 7.64 | CC(C)n1ccc(C2=C(C(=O)NS(=O)(=O)C3CC3)C(=O)N[C@@](c3ccc(CCCCC(F)(F)F)cc3)(C(F)(F)F)C2)n1 [Example 75]
37 | 7.74 | Cc1ccc(C2=C(C(=O)NS(=O)(=O)C3CC3)C(=O)N[C@@](c3ccc(OCCCC(F)(F)F)cc3)(C(F)(F)F)C2)cc1 [Example 16]
38 | 7.21 | CC(C)Cn1ccc(C2=C(C(=O)NS(=O)(=O)C3CC3)C(=O)N[C@@](c3ccc(OCCCC(F)(F)F)cc3F)(C(F)(F)F)C2)n1 [Example 55]
39 | 8.10 | COc1ccc(C2=C(C(=O)NS(=O)(=O)C3CC3)C(=O)N[C@@](c3ccc(OCCCC(F)(F)F)cc3)(C(F)(F)F)C2)cc1 [Example 27]
40 | 6.53 | COc1ccc(C2=C(C(=O)NS(C)(=O)=O)C(=O)N[C@@](c3ccc(OCCCC(F)(F)F)cc3)(C(F)(F)F)C2)cc1 [Example 34]
41 | 8.52 | CC(C)n1ccc(C2=C(C(=O)NS(=O)(=O)C3CC3)C(=O)N[C@@](c3ccc(CCCCC(F)(F)F)cc3F)(C(F)(F)F)C2)c1 [Example 51]
42 | 7.72 | CC(C)(C)c1ccc(C2=C(C(=O)NS(C)(=O)=O)C(=O)N[C@@](c3ccc(OCCCC(F)(F)F)cc3)(C(F)(F)F)C2)cc1 [Example 26]
43 | 7.77 | CCS(=O)(=O)NC(=O)C1=C(c2ccc(C)cc2)C[C@](c2ccc(OCCCC(F)(F)F)cc2)(C(F)(F)F)NC1=O [Example 19]
44 | 8.70 | O=C1N[C@@](c2ccc(OCCCC(F)(F)F)cc2F)(C(F)(F)F)CC(c2ncc(C3CC3)s2)=C1C(=O)NS(=O)(=O)C1CC1 [Example 70]
45 | 8.40 | Cc1ccc(C2=C(C(=O)NS(=O)(=O)C3CC3)C(=O)N[C@@](c3ccc(OCCCCCC(F)(F)F)cc3F)(C(F)(F)F)C2)cc1 [Example 6]
46 | 8.15 | CC(C)(C)c1ccc(C2=C(C(=O)NS(C)(=O)=O)C(=O)N[C@@](c3ccc(OCCCCCC(F)(F)F)cc3)(C(F)(F)F)C2)cc1 [Example 21]
47 | 7.60 | O=C1N[C@@](c2ccc(OCCCCCC(F)(F)F)cc2)(C(F)(F)F)CC(c2ccn(C3CC3)n2)=C1C(=O)NS(=O)(=O)C1CC1 [Example 78]
48 | 8.40 | CCCCCCC#C[C@]1(C(F)(F)F)CC(c2ccc(C)cc2)=C(C(=O)NS(C)(=O)=O)C(=O)N1 [Example 15]
49 | 8.10 | O=C1N[C@@](c2ccc(OCCCCC(F)(F)F)cc2)(C(F)(F)F)CC(c2ccc(C3CC3)s2)=C1C(=O)NS(=O)(=O)C1CC1 [Example 62]

Row | Structure (SMILES) | pIC50
50 | O=C1N[C@@](c2ccc(OCCCC(F)(F)F)cc2F)(C(F)(F)F)CC(c2ccn(C3CCC3)n2)=C1C(=O)NS(=O)(=O)C1CC1 [Example 45] | 7.77
